Earlier results, collected in patent US10543174B2, “Modified release tablet composition comprising mirabegron” (SYNTHON B.V., priority 2016, dated 2020).

Legend:
[1] = presence of food in the GI tract

solubility (BCS): high solubility | solubility in water (between neutral to acidic pH, EMA assessment report of Betmiga): soluble | bioavailability, food effect [1]: affected by the presence of food
SMILES: Nc1nc(CC(=O)Nc2ccc(CCNC[C@H](O)c3ccccc3)cc2)cs1 [Mirabegron, (R)-2-(2-aminothiazol-4-yl)-4′-[2-[(2-hydroxy-2-phenylethyl)amino]ethyl]acetic acid anilide]
